Results published in publication PMC11818712, “Unveiling the Multitarget Potential of a Rare Caffeoyl Ester from Artemisia capillaris for Diabetes Mellitus: An Integrated In Vitro and In Silico Study” (International Journal of Molecular Sciences, 2025).

Tests used:
[1] = DPPH radical scavenging activity assay; details: free radical scavenging
Experimental: The DPPH radical scavenging activity was evaluated using methods outlined in Blois (1958), with slight modifications. Different concentrations in 160 μL of MeOH (final concentration = 320 μg/mL for the extracts, fractions, and the compounds) were added to 40 μL of a DPPH:MeOH solution (1.5 × 10^−4 M). After gently mixing the sample and letting it stand at room temperature for 30 min, the optical density was measured at 520 nm using a VERSAmax microplate spectrophotometer (Molecular Devices). […] We used L-ascorbic acid as the positive control. The IC50 values presented here are expressed as the mean ± the standard error of the mean of triplicate experiments.

α-glucosidase = α-glucosidase (Saccharomyces cerevisiae, UniProt P53341); type: biochemical; details: at the tested concentration
Experimental: Enzyme inhibition studies were carried out spectrophotometrically in a 96-well microplate reader using a procedure reported by Li. A 60 µL reaction mixture, containing 20 µL of 100 mM phosphate buffer (pH 6.8), 20 µL of 2.5 mM p-NPG in the buffer, and 20 µL of PPT-14 dissolved in 10% DMSO, was added to each well. The enzymatic reaction was initiated by the addition of 20 µL of 10 mM phosphate buffer (pH 6.8), containing 0.2 U/mL α-glucosidase to each well. The plate was incubated at 37 °C for 15 min, and then 80 µL of 0.2 mol/L sodium carbonate solution was added to stop the reaction. Immediately after that, the absorbance was recorded at 405 nm using a VERSA max (Molecular Devices, Sunnyvale, CA, USA) microplate reader. Control samples contained the same reaction mixture, except that an equivalent volume of phosphate buffer was added instead of the sample solution. […] The inhibition (%) was calculated as (Ac − As)/Ac × 100%, where Ac was the absorbance of the control, and As was the absorbance of the sample.

[2] = biological target: human recombinant aldose reductase (HRAR) (Homo sapiens, UniProt P15121); experiment: Human recombinant aldose reductase (HRAR)-inhibitory activity assay (DL-glyceraldehyde substrate); type: biochemical
Experimental: The reaction mixture was prepared as follows: we combined 100 µL of 0.15 mM nicotinamide adenine dinucleotide phosphate (NADPH), 100 µL of 10mM DL-glyceraldehyde as a substrate, and 5 µL of HRAR with the sample (final concentration of 100 µM for the test compound, dissolved in 100% DMSO) in a total volume of 1.0 mL of 100 mM sodium phosphate buffer (pH 6.2). The AR activity was determined by measuring the decrease in nicotinamide adenine dinucleotide phosphate (NADPH) absorption at 340 nm over a period of 1 min using an Ultrospec-2100pro UV–visible spectrophotometer with Microsoft™ Excel, control by SWIFT II software (Amersham Biosciences, Piscataway, NJ, USA). […] The inhibition percentage (%) was calculated as described for the assay of Renilla luciferase, except that the DA sample/min represented a reduction in absorbance for 1 min with the test samples and substrate. The HRAR-inhibitory activity of each sample was expressed in terms of the IC50 value (µM), which was calculated from the log–dose inhibition curve.

PTP1B = biological target: T1, PTP1B (Homo sapiens, UniProt P18031); experiment: PTP1B-inhibitory activity assay (p-NPP substrate); type: biochemical
T1 sequence (P18031 1-435): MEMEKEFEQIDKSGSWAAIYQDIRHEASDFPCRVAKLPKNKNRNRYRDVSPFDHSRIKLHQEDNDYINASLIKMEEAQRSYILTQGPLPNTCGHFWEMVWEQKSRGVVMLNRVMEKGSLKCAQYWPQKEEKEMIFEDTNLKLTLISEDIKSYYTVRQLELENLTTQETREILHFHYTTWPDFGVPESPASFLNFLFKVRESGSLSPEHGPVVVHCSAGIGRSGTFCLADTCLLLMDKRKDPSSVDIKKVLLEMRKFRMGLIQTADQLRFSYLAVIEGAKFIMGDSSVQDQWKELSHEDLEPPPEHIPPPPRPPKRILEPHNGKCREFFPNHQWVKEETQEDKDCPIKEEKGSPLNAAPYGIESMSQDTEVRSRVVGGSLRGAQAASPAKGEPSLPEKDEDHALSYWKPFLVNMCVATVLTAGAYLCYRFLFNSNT
Experimental: Following incubation at 37 °C for 30 min, the reaction was terminated with the addition of 10 M NaOH.

Chain of α-glucosidase (P53341 whole entry): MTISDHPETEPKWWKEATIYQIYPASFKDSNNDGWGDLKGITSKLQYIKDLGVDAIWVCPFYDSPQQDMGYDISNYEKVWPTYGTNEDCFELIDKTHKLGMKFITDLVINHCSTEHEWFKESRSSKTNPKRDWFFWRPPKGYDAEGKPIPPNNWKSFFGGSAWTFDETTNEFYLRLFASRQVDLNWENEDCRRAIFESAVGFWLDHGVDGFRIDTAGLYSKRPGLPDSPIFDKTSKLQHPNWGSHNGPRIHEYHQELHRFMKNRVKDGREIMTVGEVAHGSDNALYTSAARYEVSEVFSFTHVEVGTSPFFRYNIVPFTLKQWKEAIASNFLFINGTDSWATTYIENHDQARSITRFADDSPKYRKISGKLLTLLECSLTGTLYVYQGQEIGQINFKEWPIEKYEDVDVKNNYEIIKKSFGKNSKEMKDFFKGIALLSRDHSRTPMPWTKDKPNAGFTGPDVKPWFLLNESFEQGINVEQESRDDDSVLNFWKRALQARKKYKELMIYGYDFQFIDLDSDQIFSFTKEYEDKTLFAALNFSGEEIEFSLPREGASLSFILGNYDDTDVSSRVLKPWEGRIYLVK

| SMILES | DPPH IC50 [1] | IC50 [1] | α-glucosidase inhibitory activity (α-glucosidase) | IC50 [2] | IC50 (PTP1B) |
| --- | --- | --- | --- | --- | --- |
| C[C@@](O)(C(=O)O)[C@H](O)COC(=O)/C=C/c1ccc(O)c(O)c1 [PPT-14, 4-O-caffeoyl-2-C-methyl-D-threonic acid] | 4.5 µg/mL | 14.5 µM | did not exhibit any α-glucosidase inhibitory activity | 19.5 ± 0.51 µM | 64.92 ± 0.34 µM |
| O=C1O[C@H]([C@@H](O)CO)C(O)=C1O [Ascorbic acid, reference compound] | 5.6 µg/mL | 31.8 µM |  |  |  |
